Assay results from patent US12052991B2, “Substituted pyridinyloxybenzenes and salts thereof and use thereof as herbicidal agents” (Bayer Aktiengesellschaft, priority 2018, dated 2024).

What was measured:
Format in all cases: in vivo
[1] = tested on: Amaranthus retroflexus (AMARE); test: Herbicidal post-emergence action (Table B6); conditions: visual rating about 3 weeks after treatment, 100% = plants have died, 0% = like control plants
Description: (§1) Seeds of mono- and dicotyledonous weed plants were placed in plastic pots in sandy loam soil (doubly sown with in each case one species of mono- or dicotyledonous weed plants per pot), covered with soil and cultivated in a greenhouse under controlled growth conditions. 2 to 3 weeks after sowing, the test plants were treated at the one-leaf stage. The compounds of the invention, formulated in the form of wettable powders (WP) or as emulsion concentrates (EC), were applied onto the green parts of the plants as aqueous suspension or emulsion with addition of 0.5% additive at a water application rate of 600 liters per hectare (converted). After the test plants had been kept in the greenhouse under optimum growth conditions for about 3 weeks, the activity of the preparations was rated visually in comparison to untreated controls. For example, 100% activity=the plants have died, 0% activity=like control plants. Tables B1 to B12 below show the effects of selected compounds of the general formula (I) according to Table 1 on various harmful plants and an application rate corresponding to 1280 or 320 g/ha, which were obtained by the experimental procedure mentioned above.

Stellaria media (STEME) [2] = test: Herbicidal pre-emergence action, test C (Table C8); conditions: visual scoring after about 3 weeks, 100% = plants have died, 0% = like control plants
From the text: (§2) Seeds of mono- and dicotyledonous weed plants were placed in plastic pots in sandy loam soil (doubly sown with one species each of mono- or dicotyledonous weed plants per pot) and covered with soil. The compounds of the invention, formulated in the form of wettable powders (WP) or as emulsion concentrates (EC), were then applied onto the surface of the covering soil as aqueous suspension or emulsion with addition of 0.5% additive at a water application rate of 600 liters per hectare (converted). After the treatment, the pots were placed in a greenhouse and kept under good growth conditions for the test plants. After about 3 weeks, the effect of the preparations was scored visually in comparison with untreated controls as percentages. For example, 100% activity=the plants have died, 0% activity=like control plants. Tables C1 to C12 below show the effects of selected compounds of the general formula (I) according to Table 1 on various harmful plants and an application rate corresponding to 1280 or 320 g/ha, which were obtained by the experimental procedure mentioned above.

[3] = tested on: Abutilon theophrasti (ABUTH); test: Herbicidal pre-emergence action, test C (Table C5); conditions: visual scoring after about 3 weeks, 100% = plants have died, 0% = like control plants
From the text: as §2

[4] = tested on: Amaranthus retroflexus (AMARE); test: Herbicidal pre-emergence action, test C (Table C6); conditions: visual scoring after about 3 weeks, 100% = plants have died, 0% = like control plants
From the text: as §2

[5] = tested on: harmful plants ABUTH, AMARE, ECHCG, LOLRI, MATIN, POAAN, SETVI, STEME, ALOMY, DIGSA, KCHSC and VERPE; test: Herbicidal pre-emergence action (test C), summary of Tables C1-C12; conditions: application rate of 1280 or 320 g of active ingredient per hectare; summary in words
From the text: as §2, with “percentages.” for “percentages. For example, 100% activity=the plants have died, 0% activity=like control plants. Tables C1 to C12 below show the effects of selected compounds of the general formula (I) according to Table 1 on various harmful plants and an application rate corresponding to 1280 or 320 g/ha, which were obtained by the experimental procedure mentioned above.”
(§3) For example, 100% activity=the plants have died, 0% activity=like control plants.
Tables C1 to C12 below show the effects of selected compounds of the general formula (I) according to Table 1 on various harmful plants and an application rate corresponding to 1280 or 320 g/ha, which were obtained by the experimental procedure mentioned above.
As the results of Tables C1-C12 show, compounds no.

Setaria viridis (SETVI) = test: Herbicidal pre-emergence action, test C (Table C4); conditions: visual scoring after about 3 weeks, 100% = plants have died, 0% = like control plants
From the text: as §2

[6] = tested on: Abutilon theophrasti (ABUTH); test: Herbicidal post-emergence action (Table B5); conditions: rated visually after about 3 weeks, 100% = plants have died, 0% = like control plants
Description: as §1

Poa annua (POAAN) [7] = test: Herbicidal post-emergence action (Table B3); conditions: rated visually after about 3 weeks, 100% = plants have died, 0% = like control plants
Description: as §1

[8] = tested on: Matricaria inodora (MATIN); test: Herbicidal pre-emergence action, test C (Table C7); conditions: dosage 1280 g/ha; visual scoring after about 3 weeks; 100% = plants have died, 0% = like control plants
From the text: as §2

[9] = tested on: harmful plants ABUTH, AMARE, ECHCG, LOLRI, MATIN, POAAN, SETVI, STEME, ALOMY, DIGSA, KCHSC and VERPE; test: Herbicidal post-emergence action, summary of Tables B1-B12; conditions: application rate of 1280 or 320 g of active ingredient per hectare; summary in words
Description: as §1, with “controls.” for “controls. For example, 100% activity=the plants have died, 0% activity=like control plants. Tables B1 to B12 below show the effects of selected compounds of the general formula (I) according to Table 1 on various harmful plants and an application rate corresponding to 1280 or 320 g/ha, which were obtained by the experimental procedure mentioned above.”
as §3
Tables B1 to B12 below show the effects of selected compounds of the general formula (I) according to Table 1 on various harmful plants and an application rate corresponding to 1280 or 320 g/ha, which were obtained by the experimental procedure mentioned above.
As the results of Tables B1-B12 show, compounds no.

Poa annua (POAAN) [10] = test: Herbicidal pre-emergence action, test C (Table C3); conditions: visual scoring after about 3 weeks, 100% = plants have died, 0% = like control plants
From the text: as §2

Stellaria media (STEME) [11] = test: Herbicidal post-emergence action (Table B8); conditions: visual rating about 3 weeks after treatment, 100% = plants have died, 0% = like control plants
Description: as §1

[12] = tested on: Digitaria sanguinalis (DIGSA); test: Herbicidal pre-emergence action, test C (Table C10); conditions: dosage 1280 g/ha; visual scoring after about 3 weeks; 100% = plants have died, 0% = like control plants
From the text: as §2

Veronica persica (VERPE) [13] = test: Herbicidal post-emergence action (Table B12); conditions: visual rating about 3 weeks after treatment, 100% = plants have died, 0% = like control plants
Description: as §1

Veronica persica (VERPE) [14] = test: Herbicidal pre-emergence action, test C (Table C12); conditions: dosage 1280 g/ha, visual scoring vs untreated controls
From the text: as §2

Bassia scoparia (KCHSC) = test: Herbicidal post-emergence action (Table B11); conditions: dosage 1280 g/ha; visual rating about 3 weeks after treatment; 100% = plants have died, 0% = like control plants
Description: as §1

SMILES	Post-emergence action against Amaranthus retroflexus (AMARE) ([1]; dosage 320 g/ha)	Post-emergence action against Amaranthus retroflexus (AMARE) ([1]; dosage 1280 g/ha)	Pre-emergence action against Stellaria media (STEME) (Stellaria media (STEME) [2]; dosage 320 g/ha)	Pre-emergence action against Stellaria media (STEME) (Stellaria media (STEME) [2]; dosage 1280 g/ha)	Pre-emergence action against Abutilon theophrasti (ABUTH) ([3]; dosage 1280 g/ha)	Pre-emergence action against Amaranthus retroflexus (AMARE) ([4]; dosage 320 g/ha)	Pre-emergence action against Amaranthus retroflexus (AMARE) ([4]; dosage 1280 g/ha)	herbicidal activity against the harmful plants of Tables C1-C12 in pre-emergence treatment [5]	Pre-emergence action against Setaria viridis (SETVI) (Setaria viridis (SETVI); dosage 1280 g/ha)	Post-emergence action against Abutilon theophrasti (ABUTH) ([6]; 320 g/ha)	Post-emergence action against Abutilon theophrasti (ABUTH) ([6]; 1280 g/ha)	Post-emergence action against Poa annua (POAAN) (Poa annua (POAAN) [7]; 320 g/ha)	Post-emergence action against Poa annua (POAAN) (Poa annua (POAAN) [7]; 1280 g/ha)	Pre-emergence action against Matricaria inodora (MATIN) [8]	herbicidal activity against the harmful plants of Tables B1-B12 in post-emergence treatment [9]	Pre-emergence action against Poa annua (POAAN) (Poa annua (POAAN) [10]; dosage 1280 g/ha)	Post-emergence action against Stellaria media (STEME) (Stellaria media (STEME) [11]; dosage 1280 g/ha)	Post-emergence action against Veronica persica (VERPE) (Veronica persica (VERPE) [13]; dosage 320 g/ha)	Post-emergence action against Veronica persica (VERPE) (Veronica persica (VERPE) [13]; dosage 1280 g/ha)	Pre-emergence action against Veronica persica (VERPE) (Veronica persica (VERPE) [14])	further results
Fc1cccc(Oc2ccc(Cl)cn2)c1-c1cc(C(F)F)on1 [Example 1-9]	100%	100%	100%	100%	100%	100%	100%	very good herbicidal activity	100%	100%	100%	100%	100%	90%	very good herbicidal activity	100%	100%				Pre-emergence action against Poa annua (POAAN) (Poa annua (POAAN) [10]; dosage 320 g/ha): 100%; Post-emergence action against Stellaria media (STEME) (Stellaria media (STEME) [11]; dosage 320 g/ha): 100%
FC(F)c1cc(-c2ccc(Br)cc2Oc2ccc(Cl)cn2)on1 [Example 1-62]	100%	100%			90%	90%	100%	very good herbicidal activity	100%	100%	100%	100%	100%		very good herbicidal activity	100%	100%	100%	100%	90%	Pre-emergence action against Digitaria sanguinalis (DIGSA) [12]: 100%; Pre-emergence action against Poa annua (POAAN) (Poa annua (POAAN) [10]; dosage 320 g/ha): 90%
Cc1ccc(-c2cc(C(F)F)no2)c(Oc2ncc(Cl)cc2F)c1 [Example 1-27]				90%			90%	very good herbicidal activity			90%				very good herbicidal activity		100%	100%	100%	100%	Post-emergence action against Bassia scoparia (KCHSC) (Bassia scoparia (KCHSC)): 90%; Post-emergence action against Stellaria media (STEME) (Stellaria media (STEME) [11]; dosage 320 g/ha): 100%
Cc1ccc(-c2ccccc2Oc2ccc(Cl)cn2)nc1 [Example 1-80]		100%				100%	100%	very good herbicidal activity	100%		100%			90%	very good herbicidal activity	90%	100%	100%	100%	100%	Pre-emergence action against Digitaria sanguinalis (DIGSA) [12]: 100%
N#Cc1ccc(Oc2cccc(F)c2-c2cc(C(F)(F)F)on2)nc1 [Example 1-3]	100%	100%	90%	100%	100%	100%	100%	very good herbicidal activity	100%				100%	90%	very good herbicidal activity	90%	90%				Pre-emergence action against Abutilon theophrasti (ABUTH) ([3]; dosage 320 g/ha): 90%; Pre-emergence action against Setaria viridis (SETVI) (Setaria viridis (SETVI); dosage 320 g/ha): 100%
